Assay [1] concerns the target T1, human D2R/β-arrestin (Homo sapiens (Human), UniProt P14416). Briefly: cell-based. Particulars: cAMP Antagonist, CHO-K1 cell line expressing human D2R/β-arrestin; quinpirole used as agonist.
The target of assay [2] is T1, human D2R/β-arrestin. Briefly: Gi/cAMP agonist assay (Lance Ultra cAMP, Forskolin). In kind it is cell-based. Conditions: CHO-K1 cell line expressing human D2R/β-arrestin. The method in brief: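 Read-out was Lance Ultra competitive TR-FRET (Eu-cAMP tracer plus ULight-anti-cAMP) following forskolin-induced cAMP production. Before forskolin stimulation, compounds were pin-transferred onto the seeded cells for 10 min at 37 °C.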

The target of assay [3] is T1, human D2R/β-arrestin. Nature of the assay: β-Arrestin agonist assay (PathHunter). It is filed as cell-based. Conditions: CHO-K1 cell line expressing human D2R/β-arrestin. In outline: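 Readout follows addition of Buffer:Emerald II:Galactor-Star reagent (19:5:1) to agonist-treated plates, measured as luminescence or fluorescence.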
Assay [4] addresses T1, human D2R/β-arrestin. Briefly: cell-based. Conditions: β-arrestin Antagonist, CHO-K1 cell line expressing human D2R/β-arrestin; quinpirole used as agonist.

T1 sequence (P14416 whole entry): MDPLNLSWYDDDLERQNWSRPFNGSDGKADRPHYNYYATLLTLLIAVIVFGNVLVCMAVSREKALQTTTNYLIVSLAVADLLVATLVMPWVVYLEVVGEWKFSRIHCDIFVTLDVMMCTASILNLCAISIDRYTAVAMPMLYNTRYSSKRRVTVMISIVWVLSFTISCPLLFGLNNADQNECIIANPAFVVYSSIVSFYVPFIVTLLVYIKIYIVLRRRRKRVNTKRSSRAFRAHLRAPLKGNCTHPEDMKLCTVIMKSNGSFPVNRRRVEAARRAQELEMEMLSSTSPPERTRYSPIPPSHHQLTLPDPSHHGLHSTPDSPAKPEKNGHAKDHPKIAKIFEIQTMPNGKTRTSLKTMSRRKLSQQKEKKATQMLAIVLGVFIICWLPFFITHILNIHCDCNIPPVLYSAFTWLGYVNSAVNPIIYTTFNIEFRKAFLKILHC

As for `Fc1ccccc1OCCN1CCC(CNC(c2ccc(Cl)cc2)c2ccccn2)CC1` (stereo not drawn) [Compound 121, 1-(4-chlorophenyl)-N-((1-(2-(2-fluorophenoxy)ethyl)piperidin-4-yl)methyl)-1-(pyridin-2-yl) methanamine], the IC50 on human D2R/β-arrestin [1] and on human D2R/β-arrestin [4] was 100 to 1000 nM each time. In addition, the concentration giving a half-maximal response (EC50) on human D2R/β-arrestin [2] and on human D2R/β-arrestin [3] was more than 30000 nM in each case.

As for `Fc1ccc(C(NCC2CCN(CCOc3ccccc3F)CC2)c2ccccn2)cc1` (stereo not drawn) [Compound 122, N-((1-(2-(2-fluorophenoxy)ethyl)piperidin-4-yl)methyl)-1-(4-fluorophenyl)-1-(pyridin-2-yl) methanamine], the IC50 on human D2R/β-arrestin [1] and at human D2R/β-arrestin [4] was 100 to 1000 nM in each case. For the same compound, the EC50 is 1000 to 10000 nM on human D2R/β-arrestin [2] and more than 30000 nM at human D2R/β-arrestin [3].

Regarding `O=C(NC(c1ccc(Cl)cc1)c1ccccc1F)C1CCN(CCOc2cc(F)ccc2F)CC1` (stereo not drawn) [Compound 123, N-((4-chlorophenyl)(2-fluorophenyl)methyl)-1-(2-(2,5-difluorophenoxy)ethyl) piperidine-4-carboxamide], the IC50 is more than 30000 nM at human D2R/β-arrestin [1] and 100 to 1000 nM on human D2R/β-arrestin [4]. In addition, the concentration giving a half-maximal response (EC50) at human D2R/β-arrestin [2] is less than 100 nM; on human D2R/β-arrestin [3], more than 30000 nM.

For `O=C(NC1CCN(CCOc2ccccc2)CC1)C(c1ccc(Cl)cc1)c1ccccn1` (stereo not drawn) [Compound 126, 2-(4-chlorophenyl)-N-(1-(2-phenoxyethyl)piperidin-4-yl)-2-(pyridin-2-yl)acetamide], the IC50 was more than 30000 nM on human D2R/β-arrestin [1] and 1000 to 10000 nM on human D2R/β-arrestin [4]. Also, the EC50 was less than 100 nM at human D2R/β-arrestin [2] and more than 30000 nM at human D2R/β-arrestin [3].

For the compound `COc1cccc(C(NC(=O)C2CCN(CCOc3ccccc3)CC2)c2cocn2)c1` (stereo not drawn) [Compound 129, N-((3-methoxyphenyl)(oxazol-4-yl)methyl)-1-(2-phenoxyethyl)piperidine-4-carboxamide], the IC50 at human D2R/β-arrestin [1] and at human D2R/β-arrestin [4] was more than 30000 nM in each case. The EC50 at human D2R/β-arrestin [2] is 1000 to 10000 nM; on human D2R/β-arrestin [3], more than 30000 nM.

Turning to `O=C(NC(c1ccc2c(c1)OC(F)(F)O2)c1ccccn1)C1CCN(CCOc2ccc(F)cc2F)CC1` (stereo not drawn) [Compound 130, N-((2,2-difluorobenzo[d][1,3]dioxol-5-yl)(pyridin-2-yl)methyl)-1-(2-(2,4-difluorophenoxy)ethyl)piperidine-4-carboxamide], the IC50 was more than 30000 nM at human D2R/β-arrestin [1] and 1000 to 10000 nM at human D2R/β-arrestin [4]. Further, the concentration for a half-maximal effect (EC50) was less than 100 nM on human D2R/β-arrestin [2] and 100 to 1000 nM at human D2R/β-arrestin [3].

For the compound `CN(CC1(C)CCN(CCOc2ccccc2)CC1)C(c1ccc(Cl)cc1)c1ccccn1` (stereo not drawn) [Compound 131, 1-(4-chlorophenyl)-N-methyl-N-((4-methyl-1-(2-phenoxyethyl)piperidin-4-yl)methyl)-1-(pyridin-2-yl)methanamine], the half-inhibitory concentration (IC50) is more than 30000 nM on human D2R/β-arrestin [1] and 1000 to 10000 nM at human D2R/β-arrestin [4]. Further, the 50% effective concentration (EC50) at human D2R/β-arrestin [2] was less than 100 nM; on human D2R/β-arrestin [3], 1000 to 10000 nM.

On to `Fc1ccc(OCCN2CCC(CNC(c3ccc(Cl)cc3)c3ccccn3)CC2)cc1` (stereo not drawn) [Compound 132, 1-(4-chlorophenyl)-N-((1-(2-(4-fluorophenoxy)ethyl)piperidin-4-yl)methyl)-1-(pyridin-2-yl)methanamine], for which the IC50 at human D2R/β-arrestin [1] and at human D2R/β-arrestin [4] was 1000 to 10000 nM each time. Moreover, the half-maximal effective concentration (EC50) on human D2R/β-arrestin [2] and on human D2R/β-arrestin [3] was more than 30000 nM in each case.

Take `CC(C)N(CC1CCN(CCOc2ccccc2F)CC1)C(c1ccc(Cl)cc1)c1ccccn1` (stereo not drawn) [Compound 133, N-((4-chlorophenyl)(pyridin-2-yl)methyl)-N-((1-(2-(2-fluorophenoxy)ethyl)piperidin-4-yl)methyl)propan-2-amine]: the concentration for half-maximal inhibition (IC50) on human D2R/β-arrestin [1] and at human D2R/β-arrestin [4] was less than 100 nM each time. The EC50 on human D2R/β-arrestin [2] was less than 100 nM; at human D2R/β-arrestin [3], more than 30000 nM.

Consider `COc1cccc(C(c2ccccn2)N(CC2CCN(CCOc3ccccc3F)CC2)C(C)C)c1` (stereo not drawn) [Compound 134, N-((1-(2-(2-fluorophenoxy)ethyl)piperidin-4-yl)methyl)-N-((3-methoxyphenyl)(pyridin-2-yl)methyl)propan-2-amine], for which the IC50 at human D2R/β-arrestin [1] and on human D2R/β-arrestin [4] was 100 to 1000 nM each time. The half-maximal effective concentration (EC50) at human D2R/β-arrestin [2] was less than 100 nM; at human D2R/β-arrestin [3], more than 30000 nM.

Consider `Fc1ccccc1OCCN1CCC(CN(CC(F)(F)F)C(c2ccc(Cl)cc2)c2ccccn2)CC1` (stereo not drawn) [Compound 136, N-((4-chlorophenyl)(pyridin-2-yl)methyl)-2,2,2-trifluoro-N-((1-(2-(2-fluorophenoxy)ethyl)piperidin-4-yl)methyl)ethan-1-amine], for which the half-maximal inhibitory concentration (IC50) on human D2R/β-arrestin [1] and on human D2R/β-arrestin [4] was less than 100 nM throughout. The concentration for a half-maximal effect (EC50) on human D2R/β-arrestin [2] was 1000 to 10000 nM; on human D2R/β-arrestin [3], more than 30000 nM.

Regarding `CN(CC1CCN(CCOc2ccccc2F)CC1)C(c1ccc2c(c1)OCO2)c1ccccn1` (stereo not drawn) [Compound 138, 1-(benzo[d][1,3]dioxol-5-yl)-N-((1-(2-(2-fluorophenoxy)ethyl)piperidin-4-yl)methyl)-N-methyl-1-(pyridin-2-yl)methanamine], the 50% inhibitory concentration (IC50) on human D2R/β-arrestin [1] was more than 30000 nM; at human D2R/β-arrestin [4], 100 to 1000 nM. In addition, the EC50 is 100 to 1000 nM on human D2R/β-arrestin [2] and more than 30000 nM on human D2R/β-arrestin [3].

Consider `Fc1ccccc1OCCN1CCC(CNC(c2ccc3c(c2)OCO3)c2ccccn2)CC1` (stereo not drawn) [Compound 139, 1-(benzo[d][1,3]dioxol-5-yl)-N-((1-(2-(2-fluorophenoxy)ethyl)piperidin-4-yl)methyl)-1-(pyridin-2-yl)methanamine], for which the concentration for half-maximal inhibition (IC50) on human D2R/β-arrestin [1] is 100 to 1000 nM; on human D2R/β-arrestin [4] it was 1000 to 10000 nM. For the same compound, the half-maximal effective concentration (EC50) was 1000 to 10000 nM on human D2R/β-arrestin [2] and more than 30000 nM at human D2R/β-arrestin [3].

As to `O=C(NC(c1ccc(Cl)cc1)c1ccccn1)C1CCN(CC2COc3ccccc3O2)CC1` (stereo not drawn) [Compound 140, N-((4-chlorophenyl)(pyridin-2-yl)methyl)-1-((2,3-dihydrobenzo[b][1,4]dioxin-2-yl)methyl)piperidine-4-carboxamide], the IC50 on human D2R/β-arrestin [1] and at human D2R/β-arrestin [4] was 1000 to 10000 nM each time. Further, the EC50 at human D2R/β-arrestin [2] was 1000 to 10000 nM; on human D2R/β-arrestin [3] it was more than 30000 nM.

Take `O=C(NC(c1ccc(Cl)cc1)c1ccccn1)C1CCN(CCOc2ccccn2)CC1` (stereo not drawn) [Compound 141, N-((4-chlorophenyl)(pyridin-2-yl)methyl)-1-(2-(pyridin-2-yloxy)ethyl)piperidine-4-carboxamide]: the IC50 at human D2R/β-arrestin [1] and on human D2R/β-arrestin [4] was 1000 to 10000 nM in each case. Moreover, the EC50 at human D2R/β-arrestin [2] and at human D2R/β-arrestin [3] was more than 30000 nM throughout.

For the compound `O=C(NC(c1ccc(Cl)cc1)c1ccccn1)C1CCN(CCOc2ccncc2)CC1` (stereo not drawn) [Compound 142, N-((4-chlorophenyl)(pyridin-2-yl)methyl)-1-(2-(pyridin-4-yloxy)ethyl)piperidine-4-carboxamide], the IC50 at human D2R/β-arrestin [1] and at human D2R/β-arrestin [4] was 10000 to 30000 nM in each case. The EC50 on human D2R/β-arrestin [2] and on human D2R/β-arrestin [3] was more than 30000 nM throughout.

As to `COc1cccc(C(NC(=O)C2(C)CCN(CCOc3ccccc3)CC2)c2ccccn2)c1` (stereo not drawn) [Compound 143, N-((3-methoxyphenyl)(pyridin-2-yl)methyl)-4-methyl-1-(2-phenoxyethyl)piperidine-4-carboxamide], the IC50 at human D2R/β-arrestin [1] is more than 30000 nM; on human D2R/β-arrestin [4] it was 1000 to 10000 nM. Besides, the EC50 at human D2R/β-arrestin [2] was in the range of 100 to 1000 nM; on human D2R/β-arrestin [3], 1000 to 10000 nM.

As for `CC1(C(=O)NC(c2ccc(Cl)cc2)c2ccccn2)CCN(CCOc2ccccc2)CC1` (stereo not drawn) [Compound 144, N-((4-chlorophenyl)(pyridin-2-yl)methyl)-4-methyl-1-(2-phenoxyethyl)piperidine-4-carboxamide], the IC50 on human D2R/β-arrestin [1] is more than 30000 nM; at human D2R/β-arrestin [4] it was less than 100 nM. Moreover, the concentration for a half-maximal effect (EC50) at human D2R/β-arrestin [2] and on human D2R/β-arrestin [3] was less than 100 nM in each case.

By IC50 is commonly meant the concentration needed to halve the response being measured. Low values mean higher potency, high ones lower potency. One may read the EC50 as the concentration giving half of the maximal effect.

The record behind these values is patent US10752588B2 (The Broad Institute, Inc., priority 2014, dated 2020).
